The results in this text go back to publication PMC9675044 (Journal of medicinal chemistry, 2022).

Each structure is given as a SMILES string.

One assay relates to 468 kinases. In words: KINOMEscan scanMAX kinase selectivity panel. The format is binding, human.
A further assay concerns HeLa cells. In words: Quantitative phosphoproteomic analysis. The assay is classed as cell-based, human. The settings on record: 30 min, 100 μM (LIMKi3, TH470) or 1 mM (TH257) as printed; for Significantly regulated phosphosites: p<0.01.
Assay [1] deals with more than 200 full-length kinases in Hela cell lysate. In words: Kinobead pulldown assay in cellular lysate. The format is binding, human. The settings on record: dose–response 30 μM to 1 nM.

Regarding `O=C(c1ccc(S(=O)(=O)Nc2ccccc2)cc1)N(Cc1ccccc1)Cc1cn(Cc2ccccc2)nn1` [Compound 33, N-benzyl-N-[(1-benzyl-1H-1,2,3-triazol-4-yl)methyl]-4-(phenylsulfamoyl)benzamide], in the assay on 468 kinases (selectivity profiling), the “Additional off-targets identified besides LIMK1/2” value was “four”.

With `CC(C)C(=O)Nc1ncc(C(=O)NCCN(Cc2ccccc2)C(=O)c2ccc(S(=O)(=O)Nc3ccccc3)cc2)s1` [Compound 48, N-benzyl-N-(2-{[2-(2-methylpropanamido)-1,3-thiazol-5-yl]formamido}ethyl)-4-(phenylsulfamoyl)benzamide], in the assay on HeLa cells, the Downregulated phosphosites came to 193 sites, the Upregulated phosphosites is listed as 146 sites and the Significantly regulated phosphosites came to 339 sites. In addition, the “Hits identified in kinobead assay” value in assay [1] is “No other hits except LIMK1 and LIMK2 were identified”.

`O=C(NCc1ccccc1)c1ccc(S(=O)(=O)NCc2ccccc2)cc1` [Compound 26, N-benzyl-4-(benzylsulfamoyl)benzamide]: the “Interaction with other kinases in KINOMEscan panel” value in the assay with 468 kinases (screened at 1 μM, 468 kinases) was “no interacting kinase”. Moreover, in assay [1], the “Hits identified in kinobead assay” value is “No other hits except LIMK1 and LIMK2 were identified”.

Take `CC(C)C(=O)Nc1ncc(-c2cc(C(F)F)nn2-c2c(Cl)cccc2Cl)s1` [Compound 1, reference compound]: in the assay on HeLa cells, the Downregulated phosphosites is recorded as 173 sites, the Upregulated phosphosites was determined as 189 sites and the Significantly regulated phosphosites was 362 sites. Further, the “Hits identified in kinobead assay” value in assay [1] is “No other hits except LIMK1 and LIMK2 were identified”.
